This is an account of results in ChEMBL document CHEMBL1153901, “Synthesis and antibacterial activity evaluation of metronidazole-triazole conjugates” (Bioorg Med Chem Lett, 2009).

Values after ≈ are worked out from the molar mass of the structure shown. Active and inactive are the calls of the source. No cut-off for these calls is given here.

Holding throughout (format): functional, organism-based
For one assay, the system named is Escherichia coli. Description: Antibacterial activity against Escherichia coli after 24 hrs by NCCLS microdilution method. For orientation: In broth dilution the organism is exposed to a series of concentrations in liquid medium.
In the next assay the test system is Pseudomonas aeruginosa. Description: Antibacterial activity against Pseudomonas aeruginosa after 24 hrs by […] microdilution method.
A further assay relates to Staphylococcus aureus. Description: Antibacterial activity against Staphylococcus aureus after 24 hrs by […] microdilution method.
Assay [1] has as its system Staphylococcus epidermidis. Description: Antibacterial activity against Staphylococcus epidermidis after 24 hrs by […] microdilution method.
Another assay concerns Candida albicans. Description: Antifungal activity against Candida albicans.
Another assay deals with Nakaseomyces glabratus. Description: Antifungal activity against Candida glabrata.
Another assay has as its system Geotrichum candidum. Description: Antifungal activity against Geotrichum candidum.

As usually defined, the IC50 is the midpoint of a concentration-inhibition curve. Turning to `Cc1ncc([N+](=O)[O-])n1CCn1cc(COc2ccccc2[N+](=O)[O-])nn1`, the IC50 (in the assay with Escherichia coli; in the assay on Pseudomonas aeruginosa; with Staphylococcus aureus; in assay [1]) was more than 500 µg/mL each time.

Turning to `Cc1ncc([N+](=O)[O-])n1CCn1cc(COc2ccc([N+](=O)[O-])cc2)nn1`, the IC50 (in the assay on Escherichia coli; in the assay on Pseudomonas aeruginosa; in the assay with Staphylococcus aureus; in assay [1]) was more than 500 µg/mL throughout.

With `Cc1ncc([N+](=O)[O-])n1CCn1cc(-c2ccccn2)nn1`, the IC50 in the assay with Escherichia coli was 0.12 µg/mL (≈ 0.401 µM); in the assay on Pseudomonas aeruginosa it was 0.13 µg/mL (≈ 0.434 µM); in the assay on Staphylococcus aureus, 0.13 µg/mL (≈ 0.434 µM); in assay [1], more than 500 µg/mL. Further, the result in the assay on Candida albicans, in the assay on Nakaseomyces glabratus and in the assay on Geotrichum candidum was inactive.

In the case of `Cc1ncc([N+](=O)[O-])n1CCn1cc(COc2ccc(Cl)cc2)nn1`, the IC50 in the assay on Escherichia coli is 0.003 µg/mL (≈ 0.00827 µM); with Pseudomonas aeruginosa, 0.02 µg/mL (≈ 0.0551 µM); with Staphylococcus aureus, 0.13 µg/mL (≈ 0.358 µM); in assay [1], more than 500 µg/mL. The result in the assay with Candida albicans, with Nakaseomyces glabratus and in the assay on Geotrichum candidum was inactive.

Turning to `CC(=O)c1ccc(OCc2cn(CCn3c([N+](=O)[O-])cnc3C)nn2)cc1`, the half-inhibitory concentration (IC50) (in the assay on Escherichia coli; with Pseudomonas aeruginosa; with Staphylococcus aureus; in assay [1]) was more than 500 µg/mL each time.

As to `Cc1ncc([N+](=O)[O-])n1CCn1cc(COc2ccccc2Cl)nn1`, the IC50 (in the assay on Escherichia coli; in the assay on Pseudomonas aeruginosa; in the assay on Staphylococcus aureus; in assay [1]) was more than 500 µg/mL in each case.

With `Cc1ncc([N+](=O)[O-])n1CCn1cc(COc2ccccc2)nn1`, the IC50 in the assay with Escherichia coli is 0.67 µg/mL (≈ 2.04 µM); in the assay with Pseudomonas aeruginosa it was 0.13 µg/mL (≈ 0.396 µM); in the assay on Staphylococcus aureus, more than 500 µg/mL; in assay [1], more than 500 µg/mL.

For `Cc1ncc([N+](=O)[O-])n1CCn1cc(COC2CCCCO2)nn1` (stereo not drawn), the IC50 (with Escherichia coli; in the assay on Pseudomonas aeruginosa; in the assay with Staphylococcus aureus; in assay [1]) was more than 500 µg/mL each time.

For the compound `Cc1ncc([N+](=O)[O-])n1CCn1cc(CCO)nn1`, the IC50 (with Escherichia coli; in the assay with Pseudomonas aeruginosa; in the assay on Staphylococcus aureus; in assay [1]) was more than 500 µg/mL each time.

For `Cc1cccc(OCc2cn(CCn3c([N+](=O)[O-])cnc3C)nn2)c1`, the IC50 was 0.067 µg/mL (≈ 0.196 µM) in the assay with Escherichia coli, 0.068 µg/mL (≈ 0.199 µM) in the assay with Pseudomonas aeruginosa, 0.26 µg/mL (≈ 0.759 µM) in the assay on Staphylococcus aureus and more than 500 µg/mL in assay [1]. For the same compound, the result in the assay with Candida albicans, in the assay with Nakaseomyces glabratus and with Geotrichum candidum was inactive.

As to `Cc1ncc([N+](=O)[O-])n1CCn1cc(-c2ccccc2)nn1`, the IC50 in the assay with Escherichia coli is 0.13 µg/mL (≈ 0.436 µM); in the assay with Pseudomonas aeruginosa it was 0.13 µg/mL (≈ 0.436 µM); in the assay on Staphylococcus aureus, more than 500 µg/mL; in assay [1], more than 500 µg/mL. The result in the assay with Candida albicans, in the assay with Nakaseomyces glabratus and in the assay on Geotrichum candidum was inactive.

Turning to `CN(C)[C@@H]1C(O)=C(C(N)=O)C(=O)[C@@]2(O)C(O)=C3C(=O)c4c(O)cccc4[C@@](C)(O)[C@H]3C[C@@H]12` [TETRACYCLINE], the IC50 is 0.09 µg/mL (≈ 0.203 µM) with Escherichia coli, 0.06 µg/mL (≈ 0.135 µM) in the assay with Pseudomonas aeruginosa, 0.12 µg/mL (≈ 0.27 µM) in the assay on Staphylococcus aureus and 0.08 µg/mL (≈ 0.18 µM) in assay [1].

Consider `Cc1ccc(OCc2cn(CCn3c([N+](=O)[O-])cnc3C)nn2)cc1`, for which the half-inhibitory concentration (IC50) with Escherichia coli was 0.06 µg/mL (≈ 0.175 µM); in the assay on Pseudomonas aeruginosa, 0.03 µg/mL (≈ 0.0876 µM); with Staphylococcus aureus, 0.13 µg/mL (≈ 0.38 µM); in assay [1] it was more than 500 µg/mL. The outcome with Candida albicans, in the assay on Nakaseomyces glabratus and with Geotrichum candidum was inactive.

With `Cc1ncc([N+](=O)[O-])n1CCn1cc(CO)nn1`, the IC50 was 0.091 µg/mL (≈ 0.361 µM) in the assay with Escherichia coli, 0.18 µg/mL (≈ 0.714 µM) in the assay with Pseudomonas aeruginosa, 0.35 µg/mL (≈ 1.39 µM) in the assay with Staphylococcus aureus and 0.35 µg/mL (≈ 1.39 µM) in assay [1]. In addition, the result in the assay on Candida albicans, with Nakaseomyces glabratus and with Geotrichum candidum was inactive.

For `Cc1ncc([N+](=O)[O-])n1CCn1cc(CBr)nn1`, the IC50 (in the assay on Escherichia coli; in the assay with Pseudomonas aeruginosa; in the assay with Staphylococcus aureus; in assay [1]) was more than 500 µg/mL each time.

Turning to `Cc1ncc([N+](=O)[O-])n1CCn1cc(-c2cccnc2)nn1`, the IC50 with Escherichia coli was more than 500 µg/mL; with Pseudomonas aeruginosa, more than 500 µg/mL; in the assay on Staphylococcus aureus, 0.31 µg/mL (≈ 1.04 µM); in assay [1], more than 500 µg/mL. The result with Candida albicans, with Nakaseomyces glabratus and in the assay with Geotrichum candidum was inactive.

For `Cc1ncc([N+](=O)[O-])n1CCn1cc(COc2ccccc2C=O)nn1`, the IC50 (in the assay with Escherichia coli; in the assay with Pseudomonas aeruginosa; in the assay on Staphylococcus aureus; in assay [1]) was more than 500 µg/mL each time.

For `Cc1ncc([N+](=O)[O-])n1CCn1cc(C2(O)CCCCC2)nn1`, the IC50 in the assay on Escherichia coli is more than 500 µg/mL; with Pseudomonas aeruginosa, 0.18 µg/mL (≈ 0.562 µM); in the assay on Staphylococcus aureus, more than 500 µg/mL; in assay [1] it was more than 500 µg/mL. Moreover, the outcome in the assay on Candida albicans, in the assay with Nakaseomyces glabratus and in the assay with Geotrichum candidum was inactive.

Turning to `Cc1ccccc1OCc1cn(CCn2c([N+](=O)[O-])cnc2C)nn1`, the IC50 was 0.028 µg/mL (≈ 0.0818 µM) with Escherichia coli, more than 500 µg/mL in the assay on Pseudomonas aeruginosa, more than 500 µg/mL in the assay on Staphylococcus aureus and more than 500 µg/mL in assay [1]. Moreover, the result in the assay on Candida albicans, in the assay with Nakaseomyces glabratus and with Geotrichum candidum was inactive.

For `COCc1cn(CCn2c([N+](=O)[O-])cnc2C)nn1`, the IC50 (with Escherichia coli; in the assay on Pseudomonas aeruginosa; in the assay with Staphylococcus aureus; in assay [1]) was more than 500 µg/mL each time.

In the case of `Cc1ncc([N+](=O)[O-])n1CCn1cc(COc2ccc(C=O)cc2)nn1`, the IC50 with Escherichia coli was 0.07 µg/mL (≈ 0.196 µM); with Pseudomonas aeruginosa, 0.07 µg/mL (≈ 0.196 µM); with Staphylococcus aureus, more than 500 µg/mL; in assay [1], more than 500 µg/mL. The outcome with Candida albicans, with Nakaseomyces glabratus and in the assay with Geotrichum candidum was inactive.

With `CCC(=O)OCc1cn(CCn2c([N+](=O)[O-])cnc2C)nn1`, the IC50 (with Escherichia coli; in the assay on Pseudomonas aeruginosa; in the assay on Staphylococcus aureus; in assay [1]) was more than 500 µg/mL in each case.
